Assay results from ChEMBL document CHEMBL5257089, “Gamabufotalin Induces Apoptosis and Cytoprotective Autophagy through the mTOR Signaling Pathway in Hepatocellular Carcinoma” (J Nat Prod, 2023).

Experiments:
[1] = test system: Hep 3B2; assay: Induction of apoptosis in human Hep3B cells assessed as late apoptotic cells at 20 nM incubated for 48 hrs by Annexin V-FITC/PI staining based flow cytometry method (reference value: 2.6%); assay type: functional
[2] = test system: Hep 3B2; assay: Induction of apoptosis in human Hep3B cells assessed as viable cells at 25 nM measured after 48 hrs in presence of Z-VAD-FMK by annexin V-FITC/Propidium iodide staining based flow cytometric analysis (reference value: 95.6%); assay type: functional; settings: read-out: Activity

Question: What does the source list for `C[C@]12CC[C@H](O)C[C@H]1CC[C@@H]1[C@@H]2[C@H](O)C[C@]2(C)[C@@H](c3ccc(=O)oc3)CC[C@]12O` [GAMABUFOTALIN]?
Answer: Activity [1]: 5.2%; viability at 0.025 µM [2]: 91.9%
